In ChEMBL document CHEMBL4800729 (2021):

Tests used:
[1] = biological target: Carbonic anhydrase 2 (Homo sapiens) (UniProt P00918); test: Inhibition of Carbonic Anhydrase II at compound concentration of 10.0 uM in the Eurofins-Panlabs enzyme assay (Eurofins_assay_112020); design: substrate with concentration; settings: Compound concentration 10.0 uM
[2] = biological target: Mitogen-activated protein kinase kinase kinase 5 (Homo sapiens) (UniProt Q99683); test: ASK1(h) Millipore kinase panel; settings: Compound concentration 1.0 uM
[3] = biological target: Serine-protein kinase ATM (Homo sapiens) (UniProt Q13315); test: ATM(h) Millipore kinase panel; settings: Compound concentration 1.0 uM
[4] = biological target: Aurora kinase A (Homo sapiens) (UniProt O14965); test: Aurora_A(h) Millipore kinase panel; settings: Compound concentration 1.0 uM
[5] = biological target: Casein kinase II subunit alpha (Homo sapiens) (UniProt P68400); test: CK2alpha1(h) Millipore kinase panel; settings: Compound concentration 1.0 uM
[6] = biological target: Death-associated protein kinase 1 (Homo sapiens) (UniProt P53355); test: DAPK1(h) Millipore kinase panel; settings: Compound concentration 1.0 uM
[7] = biological target: Serine/threonine-protein kinase DCLK2 (Homo sapiens) (UniProt Q8N568); test: DCAMKL2(h) Millipore kinase panel; settings: Compound concentration 1.0 uM
[8] = biological target: Serine/threonine-protein kinase 17A (Homo sapiens) (UniProt Q9UEE5); test: DRAK1(h) Millipore kinase panel; settings: Compound concentration 1.0 uM
[9] = biological target: Dual specificity tyrosine-phosphorylation-regulated kinase 2 (Homo sapiens) (UniProt Q92630); test: DYRK2(h) Millipore kinase panel; settings: Compound concentration 1.0 uM
[10] = biological target: Ephrin type-B receptor 2 (Homo sapiens) (UniProt P29323); test: EphB2(h) Millipore kinase panel; settings: Compound concentration 1.0 uM
[11] = biological target: Rhodopsin kinase GRK1 (Homo sapiens) (UniProt Q15835); test: GRK1(h) Millipore kinase panel; settings: Compound concentration 1.0 uM
[12] = biological target: G protein-coupled receptor kinase 3 (Homo sapiens) (UniProt P35626); test: GRK3(h) Millipore kinase panel; settings: Compound concentration 1.0 uM
[13] = biological target: G protein-coupled receptor kinase 6 (Homo sapiens) (UniProt P43250); test: GRK6(h) Millipore kinase panel; settings: Compound concentration 1.0 uM
[14] = biological target: Glycogen synthase kinase-3 alpha (Homo sapiens) (UniProt P49840); test: GSK3alpha(h Millipore kinase panel; settings: Compound concentration 1.0 uM
[15] = biological target: Glycogen synthase kinase-3 beta (Homo sapiens) (UniProt P49841); test: GSK3beta(h) Millipore kinase panel; settings: Compound concentration 1.0 uM
[16] = biological target: Inhibitor of nuclear factor kappa-B kinase subunit epsilon (Homo sapiens) (UniProt Q14164); test: IKKepsilon(h Millipore kinase panel; settings: Compound concentration 1.0 uM
[17] = biological target: Insulin receptor (Homo sapiens) (UniProt P06213); test: IR(h),activated Millipore kinase panel; settings: Compound concentration 1.0 uM
[18] = biological target: Tyrosine-protein kinase JAK2 (Homo sapiens) (UniProt O60674); test: JAK2(h) Millipore kinase panel; settings: Compound concentration 1.0 uM
[19] = biological target: LIM domain kinase 1 (Homo sapiens) (UniProt P53667); test: LIMK1(h) Millipore kinase panel; settings: Compound concentration 1.0 uM
[20] = biological target: Tyrosine-protein kinase Lyn (Homo sapiens) (UniProt P07948); test: Lyn(h) Millipore kinase panel; settings: Compound concentration 1.0 uM
[21] = biological target: Serine/threonine-protein kinase MARK1 (Homo sapiens) (UniProt Q9P0L2); test: MARK1(h) Millipore kinase panel; settings: Compound concentration 1.0 uM
[22] = biological target: Ribosomal protein S6 kinase alpha-5 (Homo sapiens) (UniProt O75582); test: MSK1(h) Millipore kinase panel; settings: Compound concentration 1.0 uM
[23] = biological target: Serine/threonine-protein kinase 4 (Homo sapiens) (UniProt Q13043); test: MST1(h) Millipore kinase panel; settings: Compound concentration 1.0 uM
[24] = biological target: Serine/threonine-protein kinase 26 (Homo sapiens) (UniProt Q9P289); test: MST4(h) Millipore kinase panel; settings: Compound concentration 1.0 uM
[25] = biological target: Serine/threonine-protein kinase Nek7 (Homo sapiens) (UniProt Q8TDX7); test: NEK7(h) Millipore kinase panel; settings: Compound concentration 1.0 uM
[26] = biological target: Serine/threonine-protein kinase PAK 1 (Homo sapiens) (UniProt Q13153); test: PAK1(h) Millipore kinase panel; settings: Compound concentration 1.0 uM
[27] = biological target: Serine/threonine-protein kinase pim-3 (Homo sapiens) (UniProt Q86V86); test: Pim-3(h) Millipore kinase panel; settings: Compound concentration 1.0 uM
[28] = biological target: Phosphatidylinositol 4-phosphate 5-kinase type-1 gamma (Homo sapiens) (UniProt O60331); test: PIP5K1g(h) Millipore kinase panel; settings: Compound concentration 1.0 uM
[29] = biological target: cAMP-dependent protein kinase catalytic subunit beta (Homo sapiens) (UniProt P22694); test: PKACbeta(h) Millipore kinase panel; settings: Compound concentration 1.0 uM
[30] = biological target: Protein kinase C beta type (Homo sapiens) (UniProt P05771); test: PKCbetaI(h) Millipore kinase panel; settings: Compound concentration 1.0 uM
[31] = biological target: Protein kinase C eta type (Homo sapiens) (UniProt P24723); test: PKCeta(h) Millipore kinase panel; settings: Compound concentration 1.0 uM
[32] = biological target: Serine/threonine-protein kinase SBK1 (Homo sapiens) (UniProt Q52WX2); test: SBK1(h) Millipore kinase panel; settings: Compound concentration 1.0 uM
[33] = biological target: Serine/threonine-protein kinase 32B (Homo sapiens) (UniProt Q9NY57); test: STK32B(h) Millipore kinase panel; settings: Compound concentration 1.0 uM
[34] = biological target: Angiopoietin-1 receptor (Homo sapiens) (UniProt Q02763); test: Tie2(h) Millipore kinase panel; settings: Compound concentration 1.0 uM
[35] = biological target: Tribbles homolog 2 (Homo sapiens) (UniProt Q92519); test: TRB2(h) Millipore kinase panel; settings: Compound concentration 1.0 uM
[36] = biological target: NT-3 growth factor receptor (Homo sapiens) (UniProt Q16288); test: TrkC(h) Millipore kinase panel; settings: Compound concentration 1.0 uM
[37] = biological target: Non-receptor tyrosine-protein kinase TYK2 (Homo sapiens) (UniProt P29597); test: TYK2(h) Millipore kinase panel; settings: Compound concentration 1.0 uM
[38] = biological target: Serine/threonine-protein kinase WNK3 (Homo sapiens) (UniProt Q9BYP7); test: WNK3(h) Millipore kinase panel; settings: Compound concentration 1.0 uM
[39] = biological target: MAP kinase-activated protein kinase 2 (Homo sapiens) (UniProt P49137); test: MAPKAP-K2(h) Millipore kinase panel; settings: Compound concentration 1.0 uM
[40] = biological target: CDK7/Cyclin H/MNAT1 (Homo sapiens) (UniProt P51946+P50613+P51948); test: CDK7/cyclinH/MAT1(h) Millipore kinase panel; type: protein-complex assay; settings: Compound concentration 1.0 uM
[41] = biological target: Prostaglandin G/H synthase 2 (Homo sapiens) (UniProt P35354); test: Cyclooxygenase COX-2 Eurofins-Panlabs enzyme assay; design: substrate with concentration; settings: Compound concentration 10.0 uM
[42] = biological target: 3',5'-cyclic-AMP phosphodiesterase 4D (Homo sapiens) (UniProt Q08499); test: Inhibition of Phosphodiesterase PDE4D2 at 10 µM in the Eurofins-Panlabs enzyme assay (Eurofins_assay_154420); design: substrate with concentration; settings: Compound concentration 10.0 uM
[43] = biological target: Sodium-dependent dopamine transporter (Homo sapiens) (UniProt Q01959); settings: Compound concentration 10.0 uM
[44] = biological target: Sigma non-opioid intracellular receptor 1 (Homo sapiens) (UniProt Q99720); settings: Compound concentration 10.0 uM
[45] = biological target: B2 bradykinin receptor (Homo sapiens) (UniProt P30411); settings: Compound concentration 10.0 uM
[46] = biological target: Sodium-dependent noradrenaline transporter (Homo sapiens) (UniProt P23975); settings: Compound concentration 10.0 uM
[47] = biological target: 5-hydroxytryptamine receptor 2A (Homo sapiens) (UniProt P28223); settings: Compound concentration 10.0 uM
[48] = biological target: Growth hormone secretagogue receptor type 1 (Homo sapiens) (UniProt Q92847); settings: Compound concentration 10.0 uM
[49] = biological target: Activin receptor type-2A (Homo sapiens) (UniProt P27037); test: ACTR2(h) Millipore kinase panel; settings: Compound concentration 1.0 uM

Measured: inhibition

CC[C@@H](Nc1c(C#N)c(-c2ccc(-c3cccc(C)c3F)cc2)nc2cnccc12)C(=O)O [BAY-091]
inactive: [1] -6% | [2] -9.98% | [3] 0.32% | [4] 13.8% | [5] 3.34% | [6] -3.29% | [7] -2.01% | [8] 9.65% | [9] 19.1% | [10] 1.4% | [11] 1.52% | [12] 8.23% | [13] 0.16% | [14] 5.47% | [15] -0.05% | [16] 10.2% | [17] 9.43% | [18] -5.62% | [19] 8.64% | [20] 12.5% | [21] 2.52% | [22] 1.48% | [23] 20.6% | [24] 5.69% | [25] 5.49% | [26] 23.8% | [27] 1.67% | [28] 1.51% | [29] 6.73% | [30] 16.5% | [31] 3.77% | [32] 4.02% | [33] 14.9% | [34] 12.8% | [35] 0.49% | [36] 14.8% | [37] 1.22% | [38] -1.89% | [39] 5.05% | [40] 0.3% | [41] 29% | [42] 38% | [43] 29.5% | [44] 35.8% | [45] 1% | [46] 25% | [47] 19% | [48] 6% | [49] 1.17%
